pIC50: −log10 of the molar value.
Target: T1, TLR9 (Homo sapiens, UniProt Q9NR96)
T1 sequence (Q9NR96 26-1032): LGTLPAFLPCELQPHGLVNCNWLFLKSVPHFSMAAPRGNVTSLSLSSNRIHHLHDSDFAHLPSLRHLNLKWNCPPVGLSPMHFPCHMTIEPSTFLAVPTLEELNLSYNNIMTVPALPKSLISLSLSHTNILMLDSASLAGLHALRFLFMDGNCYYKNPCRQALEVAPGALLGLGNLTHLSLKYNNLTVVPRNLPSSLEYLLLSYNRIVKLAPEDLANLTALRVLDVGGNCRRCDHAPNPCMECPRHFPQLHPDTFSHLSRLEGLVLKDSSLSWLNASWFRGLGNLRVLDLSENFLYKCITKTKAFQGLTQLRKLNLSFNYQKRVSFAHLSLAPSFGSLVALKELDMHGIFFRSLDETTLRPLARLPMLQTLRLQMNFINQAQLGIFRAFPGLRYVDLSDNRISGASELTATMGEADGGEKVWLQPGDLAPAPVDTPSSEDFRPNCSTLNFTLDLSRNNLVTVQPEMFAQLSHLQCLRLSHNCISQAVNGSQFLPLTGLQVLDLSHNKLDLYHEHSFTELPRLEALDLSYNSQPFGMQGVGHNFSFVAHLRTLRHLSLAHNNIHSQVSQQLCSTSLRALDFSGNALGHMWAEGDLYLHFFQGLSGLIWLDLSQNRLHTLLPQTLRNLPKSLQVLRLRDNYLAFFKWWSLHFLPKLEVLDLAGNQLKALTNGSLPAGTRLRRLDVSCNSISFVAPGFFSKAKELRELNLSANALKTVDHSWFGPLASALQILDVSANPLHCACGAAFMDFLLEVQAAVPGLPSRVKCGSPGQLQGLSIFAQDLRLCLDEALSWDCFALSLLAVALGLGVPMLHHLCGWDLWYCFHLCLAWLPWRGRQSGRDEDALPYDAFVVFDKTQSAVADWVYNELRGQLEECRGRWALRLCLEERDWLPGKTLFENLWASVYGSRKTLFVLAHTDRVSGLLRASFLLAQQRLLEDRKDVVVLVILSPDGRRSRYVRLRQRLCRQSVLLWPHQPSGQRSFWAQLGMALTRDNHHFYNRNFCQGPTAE
Assay: HEK293-Blue-hTLR-9 cells assay (SEAP reporter, ODN2006 stimulation)
Type: cell-based
Parameters: host or cells: HEK293 (HEK-Blue hTLR9)
Conditions: HEK293-Blue-hTLR9 cells, ODN2006, 20 hrs; read-out: HEK/hTLR9 IC50
Method: The following tests were carried out in order to determine the activity of the compounds of formula (I) and (Ia) in HEK293-Blue-hTLR-7/8/9 cells assay.
A stable HEK293-Blue-hTLR-9 cell line was purchased from InvivoGen (Cat. #: hkb-htlr9, San Diego, California, USA). These cells were originally designed for studying the stimulation of human TLR9 by monitoring the activation of NF-κB. A SEAP (secreted embryonic alkaline phosphatase) reporter gene was placed under the control of the IFN-β minimal promoter fused to five NF-κB and AP-1-binding sites. The SEAP was induced by activating NF-κB and AP-1 via stimulating HEK-Blue hTLR9 cells with TLR9 ligands. Therefore the reporter expression was declined by TLR9 antagonist under the stimulation of a ligand, such as ODN2006 (Cat. #: tlrl-2006-1, Invivogen, San Diego, California, USA), for incubation of 20 hrs. The cell culture supernatant SEAP reporter activity was determined using QUANTI-Blue™ kit (Cat. #: rep-qb1, Invivogen, San Diego, California, USA) at a wavelength of 640 nm, a detection medium that turns purple or blue in the presence of alkaline phosphatase.
HEK293-Blue-hTLR9 cells were incubated at a density of 250,000-450,000 cells/mL in a volume of 170 μL in a 96-well plate in Dulbecco's Modified Eagle's medium (DMEM) containing 4.5 g/L glucose, 50 U/mL penicillin, […], […], 2 mM L-glutamine, 10% (v/v) heat-inactivated fetal bovine serum with addition of 20 μL test compound in a serial dilution in the presence of final DMSO at 1% and 10 μL of 20 uM ODN2006 in above DMEM, perform incubation under 37° C. in a CO2 incubator for 20 hrs. Then 20 μL of the supernatant from each well was incubated with 180 μL Quanti-blue substrate solution at 37° C. for 2 h and the absorbance was read at 620˜655 nm using a spectrophotometer.
The signaling pathway that TLR9 activation leads to downstream NF-κB activation has been widely accepted, and therefore similar reporter assay was modified for evaluating TLR9 antagonist.

| Structure (SMILES) | pIC50 |
| --- | --- |
| C[C@H]1CN(c2ccnc3c2cnn3C)Cc2ccc(N3C[C@@]4(CCNC4)CC3=O)cc21 (single isomer, unassigned) [Example 53] | 6.68 |
| Cc1cc(N2Cc3ccc(N4CC5(CNCCO5)C4)nc3[C@@H](C)C2)c2cnn(C)c2n1 [Example 68, 2-[(8S)-6-(1,6-dimethylpyrazolo[3,4-b]pyridin-4-yl)-8-methyl-7,8-dihydro-5H-1,6-naphthyridin-2-yl]-5-oxa-2,8-diazaspiro[3.5]nonane] | 6.48 |
| C[C@H]1CN(c2ccnc3c2cnn3C)Cc2ccc(OC[C@H]3CNCCN3)cc21 [Example 18, (4R)-4-methyl-2-(1-methylpyrazolo[3,4-b]pyridin-4-yl)-6-[[(2R)-piperazin-2-yl]methoxy]-3,4-dihydro-1H-isoquinoline] | 6.95 |
| CCn1ncc2c(N3Cc4ccc(N5CCNCC5)cc4[C@@H](C)C3)ccnc21 [Example 22, (4R)-2-(1-ethylpyrazolo[3,4-b]pyridin-4-yl)-4-methyl-6-piperazin-1-yl-3,4-dihydro-1H-isoquinoline] | 6.39 |
| C[C@H]1CN(c2ccnc3c2cnn3C)Cc2ccc(OC3CN(C4CCNCC4)C3)cc21 [Example 41, (4R)-4-methyl-2-(1-methylpyrazolo[3,4-b]pyridin-4-yl)-6-[1-(4-piperidyl)azetidin-3-yl]oxy-3,4-dihydro-1H-isoquinoline] | 7.33 |
| C[C@H]1CN(c2ccnc3c2cnn3C)Cc2ccc(N3CC4(CNCCO4)C3)cc21 [Example 21, 2-[(4R)-4-methyl-2-(1-methylpyrazolo[3,4-b]pyridin-4-yl)-3,4-dihydro-1H-isoquinolin-6-yl]-5-oxa-2,8-diazaspiro[3.5]nonane] | 6.43 |
| CO[C@H]1CN(c2ccc3c(n2)[C@@H](C)CN(c2cc(C)nc4c2cnn4C)C3)CC[C@@H]1N [Example 65, (3S,4S)-3-methoxy-1-[(8S)-6-(1,6-dimethylpyrazolo[3,4-b]pyridin-4-yl)-8-methyl-7,8-dihydro-5H-1,6-naphthyridin-2-yl]piperidin-4-amine] | 6.97 |
| C[C@H]1CN(c2ccnc3c2cnn3C)Cc2ccc(N3CCN(c4cc5c(cn4)CCNC5)CC3)cc21 [Example 9, 7-[4-[(4R)-4-methyl-2-(1-methylpyrazolo[3,4-b]pyridin-4-yl)-3,4-dihydro-1H-isoquinolin-6-yl]piperazin-1-yl]-1,2,3,4-tetrahydro-2,6-naphthyridine] | 6.93 |
| C[C@H]1CN(c2ccnc3c2cnn3C)Cc2ccc(N3C[C@H]4CCNC[C@H]4C3=O)cc21 (single isomer, unassigned) [Example 56] | 6.60 |
| C[C@H]1CN(c2ccnc3c2cnn3C)Cc2ccc(N3CCC(N4CC(N)C4)CC3)cc21 [Example 28, 1-[1-[(4R)-4-methyl-2-(1-methylpyrazolo[3,4-b]pyridin-4-yl)-3,4-dihydro-1H-isoquinolin-6-yl]-4-piperidyl]azetidin-3-amine] | 6.82 |
| Cc1cc(N2Cc3cnc(O[C@@H]4C[C@H]5CNCCN5C4)cc3[C@@H](C)C2)c2cnn(C)c2n1 [Example 76, (4R)-2-(1,6-dimethylpyrazolo[3,4-b]pyridin-4-yl)-4-methyl-6-[[(7R,8aS)-1,2,3,4,6,7,8,8a-octahydropyrrolo[1,2-a]pyrazin-7-yl]oxy]-3,4-dihydro-1H-2,7-naphthyridine] | 6.84 |
| C[C@H]1CN(c2ccnc3c2cnn3C)Cc2ccc(N3CC4(CCNC4)OC3=O)cc21 (stereo partly drawn) [Example 35, 3-[(4R)-4-methyl-2-(1-methylpyrazolo[3,4-b]pyridin-4-yl)-3,4-dihydro-1H-isoquinolin-6-yl]-1-oxa-3,7-diazaspiro[4.4]nonan-2-one] | 6.74 |
| C[C@H]1CN(c2ccnc3c2cnn3C)Cc2ccc(N3CCNCC3)cc21 [Example 1, (4R)-4-methyl-2-(1-methylpyrazolo[3,4-b]pyridin-4-yl)-6-piperazin-1-yl-3,4-dihydro-1H-isoquinoline] | 6.70 |
| C[C@H]1CN(c2ccnc3c2cnn3C)Cc2ccc(N3CCNC(CO)C3)cc21 (stereo partly drawn) [Example 49, [4-[(4R)-4-methyl-2-(1-methylpyrazolo[3,4-b]pyridin-4-yl)-3,4-dihydro-1H-isoquinolin-6-yl]piperazin-2-yl]methanol] | 6.70 |

More lines, now with the values ahead:

| pIC50 | Structure (SMILES) |
| --- | --- |
| 7.14 | Cc1cc(N2Cc3cnc(N4CC[C@@H](N)[C@H](F)C4)cc3[C@@H](C)C2)c2cnn(C)c2n1 [Example 80, (3R,4R)-3-fluoro-1-[(5R)-7-(1,6-dimethylpyrazolo[3,4-b]pyridin-4-yl)-5-methyl-6,8-dihydro-5H-2,7-naphthyridin-3-yl]piperidin-4-amine] |
| 6.31 | Cc1cc(N2Cc3ccc(N4C[C@@H](F)[C@@H](N)C4)nc3[C@@H](C)C2)c2cnn(C)c2n1 [Example 69, (3S,4R)-4-fluoro-1-[(8S)-6-(1,6-dimethylpyrazolo[3,4-b]pyridin-4-yl)-8-methyl-7,8-dihydro-5H-1,6-naphthyridin-2-yl]pyrrolidin-3-amine] |
| 6.54 | C[C@H]1CN(c2ccnc3c2cnn3C)Cc2ccc(N3C[C@@H]4CNCCN4C3=O)cc21 [Example 25, (8aS)-2-[(4R)-4-methyl-2-(1-methylpyrazolo[3,4-b]pyridin-4-yl)-3,4-dihydro-1H-isoquinolin-6-yl]-1,5,6,7,8,8a-hexahydroimidazo[1,5-a]pyrazin-3-one] |
| 6.94 | Cc1cc(N2Cc3cnc(N4CCNC5(CC5)C4)cc3[C@@H](C)C2)c2cnn(C)c2n1 [Example 75, (4R)-6-(4,7-diazaspiro[2.5]octan-7-yl)-2-(1,6-dimethylpyrazolo[3,4-b]pyridin-4-yl)-4-methyl-3,4-dihydro-1H-2,7-naphthyridine] |
| 6.70 | Cc1cc(N2Cc3ccc(N4CCC(N)CC4)nc3[C@@H](C)C2)c2cnn(C)c2n1 [Example 58, 1-[(8S)-6-(1,6-dimethylpyrazolo[3,4-b]pyridin-4-yl)-8-methyl-7,8-dihydro-5H-1,6-naphthyridin-2-yl]piperidin-4-amine] |
| 6.65 | C[C@H]1CN(c2ccnc3c2cnn3C)Cc2ccc(N3C[C@@H]4CCNC[C@@H]4C3=O)cc21 (single isomer, unassigned) [Example 57] |
| 7.20 | C[C@H]1CN(c2ccnc3c2cnn3C)Cc2ccc(N3CC4(CCNCC4)CC3=O)cc21 [Example 16, 2-[(4R)-4-methyl-2-(1-methylpyrazolo[3,4-b]pyridin-4-yl)-3,4-dihydro-1H-isoquinolin-6-yl]-2,8-diazaspiro[4.5]decan-3-one] |
| 6.56 | CC1CN(c2ccnc3c2cnn3C)Cc2ccc(N3CCC4(CCNCC4)CC3)cc21 (centres unmarked) [Example 4, 3-[4-methyl-2-(1-methylpyrazolo[3,4-b]pyridin-4-yl)-3,4-dihydro-1H-isoquinolin-6-yl]-3,9-diazaspiro[5.5]undecane] |
| 6.98 | Cc1cc(N2Cc3ccc(OC[C@@H]4CNCCN4)cc3[C@@H](C)C2)c2cnn(C)c2n1 [Example 31, (4R)-2-(1,6-dimethylpyrazolo[3,4-b]pyridin-4-yl)-4-methyl-6-[[(2S)-piperazin-2-yl]methoxy]-3,4-dihydro-1H-isoquinoline] |
